Results as given in US20210084905A1, “METHODS AND COMPOSITIONS FOR AQUACULTURE” (priority 2018, published 2021).

Experiments:
[1] = test system: V. cholerae O1 strain, H1; assay: sensitivity to the A603 phenazine; assay type: cell-based
Text: GO annotations were not assigned to these genes thus they were not included in the hypergeometric and GSEA analyses. One gene (TMChrII_2378) encodes a protein with high structural conservation to heme monooxgenase and the other (TMChrI_2040) a dioxygenase that closely resembles a bleomycin resistance proteins. A second dioxygenase (TMChr1_3001) is also among the top induced genes. This family of dioxygenase proteins includes those that can bind and in some cases hydrolyze planar and aromatic antibacterial molecules including phenazines. Though amino acid sequence similarity is poor, the predicted structure of TMChr1_2040 is very similar to EphR, a protein that loosely binds phenazine in producer strains and confers resistance by binding molecules until export.

[2] = test system: bacterial strains seeded into an agar soft overlay; assay: secretion assay, soft agar overlay (halo of inhibition); assay type: cell-based; settings: secreted antibacterial compound
Method: Many other phenazine molecules including pyocyanin are shown to elicit antibacterial activity often by causing oxidative stress. To test whether the genes hit in the transposon insertion screen are required, two separate genes with insertions (orf6 & orf8) in the region of the operon were precisely deleted in A603 ΔvipA.
The spectrum of inhibition for the putative phenazine molecule was tested by seeding agar with a diverse set of laboratory and environmental strains using A603 ΔvipA and an isogenic double knockout A603 ΔvipA Δorf8 to score inhibition by appearance of a halo around A603 ΔvipA.

c1ccc2nc3ccccc3nc2c1 [A603 phenazine]
sensitivity of V. cholerae O1 strain H1 [1]: very sensitive | growth inhibition (halo) in soft agar overlay [2]: broad spectrum antibacterial activity
